Data: the supplement of paper PMC10307832

What was measured:
Experiment in all cases: relative viability (nuclei count vs DMSO), 5 days (fraction); higher = more cells survive
VE-821 + Palbociclib = compound: CS(=O)(=O)c1ccc(-c2cnc(N)c(C(=O)Nc3ccccc3)n2)cc1 [VE-821] + CC(=O)c1c(C)c2cnc(Nc3ccc(N4CCNCC4)cn3)nc2n(C2CCCC2)c1=O [Palbociclib] (partner 0.5 µM)
Summary of the method: (§1)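 Five library-drug doses in √10 steps were combined with a fixed anchor-drug dose, or a single drug was given alone, by pin tool to lung cancer cell lines in 1536-well plates the day after seeding. Nuclei were stained and counted after 5 days. Relative viability is the nuclei count in treated wells over that in vehicle wells, taken as the median of duplicate plates.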

Vismodegib + Phenformin = compound: CS(=O)(=O)c1ccc(C(=O)Nc2ccc(Cl)c(-c3ccccn3)c2)c(Cl)c1 [Vismodegib] + N=C(N)NC(=N)NCCc1ccccc1 [Phenformin] (partner 250 µM)
Summary of the method: as §1

Vismodegib + Olaparib = compound: CS(=O)(=O)c1ccc(C(=O)Nc2ccc(Cl)c(-c3ccccn3)c2)c(Cl)c1 [Vismodegib] + O=C(c1cc(Cc2n[nH]c(=O)c3ccccc23)ccc1F)N1CCN(C(=O)C2CC2)CC1 [Olaparib] (partner 8 µM)
Summary of the method: as §1

Ruxolitinib + Phenformin = compound: N#CC[C@H](C1CCCC1)n1cc(-c2ncnc3[nH]ccc23)cn1 [Ruxolitinib] + N=C(N)NC(=N)NCCc1ccccc1 [Phenformin] (partner 250 µM)
Summary of the method: as §1

Cell Line | relative viability (VE-821 + Palbociclib; first compound 0.08 µM) | relative viability (VE-821 + Palbociclib; first compound 0.253 µM) | relative viability (VE-821 + Palbociclib; first compound 0.8 µM) | relative viability (VE-821 + Palbociclib; first compound 2.53 µM) | relative viability (VE-821 + Palbociclib; first compound 8 µM) | relative viability (Vismodegib + Phenformin; first compound 0.08 µM) | relative viability (Vismodegib + Phenformin; first compound 0.253 µM) | relative viability (Vismodegib + Phenformin; first compound 0.8 µM) | relative viability (Vismodegib + Phenformin; first compound 2.53 µM) | relative viability (Vismodegib + Phenformin; first compound 8 µM) | relative viability (Vismodegib + Olaparib; first compound 0.08 µM) | relative viability (Vismodegib + Olaparib; first compound 0.253 µM) | relative viability (Vismodegib + Olaparib; first compound 0.8 µM) | relative viability (Vismodegib + Olaparib; first compound 2.53 µM) | relative viability (Vismodegib + Olaparib; first compound 8 µM) | relative viability (Ruxolitinib + Phenformin; first compound 0.08 µM) | relative viability (Ruxolitinib + Phenformin; first compound 0.253 µM) | relative viability (Ruxolitinib + Phenformin; first compound 0.8 µM) | relative viability (Ruxolitinib + Phenformin; first compound 2.53 µM) | relative viability (Ruxolitinib + Phenformin; first compound 8 µM)
SK-MES-1 | 0.339 | 0.345 | 0.323 | 0.296 | 0.287 | 0.625 | 0.647 | 0.669 | 0.635 | 0.631 | 0.701 | 0.656 | 0.62 | 0.707 | 0.685 | 0.708 | 0.641 | 0.663 | 0.593 | 0.495
HCC-827 | 0.515 | 0.516 | 0.405 | 0.531 | 0.522 | 0.39 | 0.406 | 0.381 | 0.384 | 0.408 | 0.581 | 0.653 | 0.728 | 0.678 | 0.657 |  | 0.35 | 0.32 | 0.304 | 0.411
NCI-H596 |  |  |  |  |  | 0.71 | 0.737 | 0.748 | 0.769 | 0.767 | 0.749 | 0.488 | 0.653 | 0.706 | 0.844 | 0.975 | 0.793 | 0.801 | 0.706 | 0.836
COR-L23 | 0.284 | 0.307 | 0.32 | 0.394 | 0.307 | 0.441 | 0.423 | 0.43 | 0.453 | 0.493 | 0.35 | 0.339 | 0.337 | 0.281 | 0.317 | 0.457 | 0.407 | 0.45 | 0.439 | 0.354
201T | 0.37 | 0.35 | 0.355 | 0.318 | 0.325 | 0.45 | 0.49 | 0.423 | 0.45 | 0.44 | 0.826 | 0.875 | 0.798 | 0.845 | 0.822 | 0.44 | 0.455 | 0.473 | 0.429 | 0.503
NCI-H322M | 0.446 | 0.462 | 0.463 | 0.483 | 0.443 | 0.798 | 0.771 | 0.783 | 0.729 | 0.756 | 0.753 | 0.679 | 0.695 | 0.704 | 0.776 | 0.777 | 0.768 | 0.936 | 0.962 | 1.02
LU99A | 0.426 | 0.456 | 0.434 | 0.408 | 0.267 | 0.901 | 0.807 | 0.813 | 0.802 | 0.772 | 0.306 | 0.278 | 0.292 | 0.267 | 0.247 | 1.06 | 0.931 | 0.801 | 0.782 | 0.755
NCI-H2405 | 0.533 | 0.496 | 0.541 | 0.558 | 0.408 | 0.336 | 0.386 | 0.381 | 0.381 | 0.39 | 0.856 | 0.909 | 0.823 | 0.833 | 0.875 |  | 0.36 | 0.404 | 0.308 | 0.312
LK-2 | 0.762 | 0.737 | 0.781 | 0.563 | 0.639 | 0.617 | 0.619 | 0.431 | 0.366 | 0.373 | 0.379 | 0.574 | 0.956 | 0.638 | 0.604 | 0.337 | 0.499 | 0.359 | 0.292 | 0.692
HCC-366 | 0.668 | 0.378 | 0.303 | 0.0939 | 0.0558 | 0.683 | 0.614 | 0.631 | 0.619 | 0.586 | 0.343 | 0.364 | 0.378 | 0.431 | 0.372 | 0.584 | 0.654 | 0.667 | 0.542 | 0.472
NCI-H441 | 0.251 | 0.167 | 0.253 | 0.246 | 0.228 | 0.838 | 0.648 | 0.831 | 0.835 | 0.907 | 0.561 |  | 0.579 | 0.55 | 0.55 | 0.769 | 0.743 | 1.13 | 0.688 | 0.651
COR-L 105 | 0.432 | 0.339 | 0.443 | 0.409 | 0.399 | 0.498 | 0.441 | 0.516 | 0.506 | 0.495 | 0.605 | 0.64 | 0.69 | 0.698 | 0.537 | 0.409 | 0.495 | 0.425 | 0.392 | 0.374
A-427 | 0.55 | 0.547 | 0.565 | 0.562 | 0.449 | 0.307 | 0.385 | 0.385 | 0.314 | 0.283 | 0.743 | 0.804 | 0.642 | 0.675 | 0.786 | 0.291 | 0.3 | 0.338 | 0.281 | 0.276
HCC-44 | 0.956 | 0.981 | 0.992 | 1.08 | 1.07 | 0.184 | 0.195 | 0.179 | 0.173 | 0.183 | 0.945 | 0.919 | 0.981 | 1.01 | 0.962 | 0.103 | 0.143 | 0.228 | 0.168 | 0.216
NCI-H2170 | 0.432 | 0.414 | 0.381 | 0.45 | 0.32 | 0.416 | 0.409 | 0.444 | 0.433 | 0.39 | 0.624 | 0.549 | 0.657 | 0.581 | 0.584 | 0.382 | 0.391 | 0.417 | 0.374 | 0.351
NCI-H1623 |  |  |  |  |  | 0.553 | 0.577 | 0.661 | 0.536 | 0.578 |  |  |  |  |  | 0.525 | 0.608 | 0.574 | 0.637 | 0.343
NCI-H2228 | 0.885 | 0.762 | 0.981 | 1.03 | 0.547 | 0.387 | 0.452 | 0.301 | 0.296 | 0.314 | 0.596 | 0.796 | 0.56 | 0.502 | 0.477 | 0.323 | 0.299 | 0.311 | 0.264 | 0.273
